Earlier results in patent publication US6127342A, “Method for preventing or treating a lung disease caused by active oxygen and free radical injury” (Teijin Limited, priority 1991, dated 2000).

Test system: glutathione peroxidase
Conditions: Flohe, et al.; cited from earlier work

## COC(=O)[C@H](CS)NC(=O)CC[C@H](N)C(=O)O
  efficiency as substrate of glutathione peroxidase compared with glutathione: 20-30%
